The values below come from patent publication US9359311B2, “Substituted aromatic oligomers” (NEUROSCIOS GMBH, priority 2011, dated 2016).

Structures are written as SMILES.

One assay has as its system primary chicken neurons. Put plainly: Inhibition of Abeta 1-42 toxicity on primary chicken neurons (MTT). It is filed as cell-based. Set-up: key: No: no effect; +: minor positive effect on cell viability in the presence of aggregated Aβ 1-42; ++: medium positive effect on cell viability in the presence of aggregated Aβ 1-42; +++: strong positive effect on cell viability in the presence of aggregated Aβ 1-42. To be noted: 10 μM Aβ1-42 aggregated together with compound for 48 h. On the procedure:
One-day-old fertilized eggs are stored under appropriate conditions until start of breeding. On embryonic day 0 eggs are transferred to the breeding incubator and under turning, kept at 37.8° C. and 55% humidity until embryonic day eight. Neurons are prepared as follows: In short, embryos are transferred to a plastic dish, and decapitated. Both brain hemispheres are removed, collected and any loose tissue removed. Hemispheres are mechanically dissociated and 4.8×10^4 cells per well (96-well plates) are seeded in a volume of 160 μl.
Aβ1-42 (MW 4514.1) was obtained from American Peptide Company as a lyophilized powder. A stock solution of 340 μM Aβ1-42 was prepared in 50 mM Tris-Buffer, 150 mM NaCl, pH7.6 according to the manufacturer's instructions. After sonication, the stock solution is diluted 1:1 with the test compounds to obtain a concentration of 170, 17 and 1.7 μM. After aggregation at 4° C. for 48 h, the solutions are sonicated again prior to application to the cells. The final concentration of Aβ1-42 applied to the primary chicken neurons is 10 μM.
Aβ1-42 aggregated together with compound for 48 hrs was applied to chicken neurons at DIV4 (days in vitro) and analyzed at DIV10 (144 hrs) and all others were applied to chicken neurons at DIV6 and analysed at DIV10 (96 hrs).
Viability of cultures is determined by the MTT assay. The MTT assay allows for the measurement of the mitochondrial dehydrogenase activity which reduces yellow MTT to dark blue formazan crystals. Since this reaction is catalyzed in living cells only this assay is used for the determination of cell viability. MTT solution is added to each well in a final concentration of 0.5 mg/ml. After 2 hours the MTT containing medium is aspired. Cells are lysed in 3% SDS and the formazan crystals are dissolved in isopropanol/HCl. Optical density is measured with a plate-reader at wavelength 570 nm. Cell survival rate is expressed as a percentage of optical density (OD) relative to control cells not treated with Aβ or compound.

The next assay concerns the target T1, biotinylated Aβ1-42 (Homo sapiens, UniProt P05067).
T1 construct: To assure monomerisation of biotinylated Aβ1-42 (Anaspec #23523-0.5) the peptide was thoroughly monomerised; purchased Anaspec 23523-0.5
Put plainly: Inhibition of Abeta oligomerisation (biotinylated Aβ1-42, neutravidin plate, streptavidin-HRP). It is filed as biochemical. To be noted: inhibition of Aβ1-42 aggregation, approximately 12 nM Aβ1-42, PBS pH 7.4, 2% DMSO, 30 min RT.

T1 sequence (P05067 672-713 limits assumed): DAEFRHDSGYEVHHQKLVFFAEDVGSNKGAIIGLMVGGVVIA

In the case of `O=C(O)Cc1ccccc1-c1cc(CC(=O)O)c(-c2ccc(-c3sc(-c4ccccc4CC(=O)O)cc3CC(=O)O)s2)s1` [Example 47, 2-(2-{5-[3-(Carboxymethyl)-5-[2-(carboxymethyl)phenyl]thiophen-2-yl]thiophen-2-yl}-5-[2-(carboxymethyl)phenyl]thiophen-3-yl)acetic acid], the “Rescue of Abeta toxicity (MTT)” value with primary chicken neurons (Conc. 0.1 μM), in the assay with primary chicken neurons (Conc. 1 μM) and in the assay on primary chicken neurons (Conc. 10 μM) was “+++” each time.

On biotinylated Aβ1-42, `O=C(O)Cc1cc(Cl)sc1-c1ccc(-c2sc(-c3ccc(-c4cc(CC(=O)O)c(-c5ccc(-c6sc(Cl)cc6CC(=O)O)s5)s4)s3)cc2CC(=O)O)s1` [Example 58, 2-(2-{5-[3-(Carboxymethyl)-5-{5-[4-(carboxymethyl)-5-{5-[3-(carboxymethyl)-5-chlorothiophen-2-yl]thiophen-2-yl}thiophen-2-yl]thiophen-2-yl}thiophen-2-yl]thiophen-2-yl}-5-chlorothiophen-3-yl)acetic acid] gave a concentration for half-maximal inhibition (IC50) of 0.398 µM.

With `Cc1ccc(-c2ccc(-c3cc(CC(=O)O)c(-c4ccc(-c5sc(-c6ccc(-c7ccc(C)cc7C(=O)O)s6)cc5CC(=O)O)s4)s3)s2)c(C(=O)O)c1` [Example 63, 2-{5-[5-(5-{5-[5-(2-Carboxy-4-methylphenyl)thiophen-2-yl]-3-(carboxymethyl)thiophen-2-yl}thiophen-2-yl)-4-(carboxymethy)thiophen-2-yl]thiophen-2-yl}-5-methylbenzoic acid], the half-inhibitory concentration (IC50) against biotinylated Aβ1-42 is 1 µM.

The compound `O=C(O)/C=C/c1ccc(-c2cc(CC(=O)O)c(-c3ccc(-c4sc(-c5ccc(/C=C/C(=O)O)s5)cc4CC(=O)O)s3)s2)s1` [Example 64] had an IC50 on biotinylated Aβ1-42 of 2.51 µM.

`O=C(O)Cc1cc(-c2ccc(-c3cc(CC(=O)O)c(-c4ccc(-c5cccc(C(=O)O)c5)s4)s3)s2)sc1-c1ccc(-c2cccc(C(=O)O)c2)s1` [Example 65, 3-{5-[3-(Carboxymethyl)-5-{5-[4-(carboxymethyl)-5-[5-(3-carboxyphenyl)thiophen-2-yl]thiophen-2-yl]thiophen-2-yl}thiophen-2-yl]thiophen-2-yl}thiophen-2-benzoic acid]: at biotinylated Aβ1-42, the IC50 was 0.631 µM.

`O=C(O)Cc1cc(-c2cc(CC(=O)O)c(-c3ccc(-c4cccc(C(=O)O)c4)s3)s2)sc1-c1ccc(-c2cccc(C(=O)O)c2)s1` [Example 66, 3-{5-[3-(Carboxymethyl)-5-[4-(carboxymethyl)-5-[5-(3-carboxyphenyl)thiophen-2-yl]thiophen-2-yl]thiophen-2-yl]thiophen-2-yl}benzoic acid] had a concentration for half-maximal inhibition (IC50) on biotinylated Aβ1-42 of 5.01 µM.

`COC(=O)Cc1cc(-c2ccc(C(=O)O)s2)sc1-c1ccc(-c2sc(-c3ccc(C(=O)O)s3)cc2CC(=O)OC)s1` [Example 69, 5-(5-{5-[5-(5-Carboxythiophen-2-yl)-3-(2-methoxy-2-oxoethyl)thiophen-2-yl]thiophen-2-yl}-4-(2-methoxy-2-oxoethyl)thiophen-2-yl)thiophene-2-carboxylic acid] showed an IC50 against biotinylated Aβ1-42 of 2.51 µM.

`COC(=O)c1ccc(-c2cc(CC(=O)O)c(-c3ccc(-c4sc(-c5ccc(C(=O)OC)s5)cc4CC(=O)O)s3)s2)s1` [Example 70, 2-(2-{5-[3-(Carboxymethyl)-5-[5-(methoxycarbonyl)thiophen-2-yl]thiophen-2-yl]thiophen-2-yl}-5-[5-(methoxycarbonyl)thiophen-2-yl]thiophen-3-yl)acetic acid] gave an IC50 against biotinylated Aβ1-42 of 3.16 µM.

For the compound `O=C(O)Cc1ccc(-c2ccc(-c3ccc(CC(=O)O)s3)s2)s1` [Example 72, 2-(5-{5-[5-(Carboxymethyl)thiophen-2-yl]thiophen-2-yl}thiophen-2-yl)acetic acid], on biotinylated Aβ1-42, the IC50 is 25.1 µM.

Regarding `O=C(O)c1cccc(-c2cc(CCO)c(-c3ccc(-c4sc(-c5cccc(C(=O)O)c5)cc4CCO)s3)s2)c1` [Example 74, 3-(5-{5-[5-(3-Carboxyphenyl)-3-(2-hydroxyethyl)thiophen-2-yl]thiophen-2-yl}-4-(2-hydroxyethyl)thiophen-2-yl)benzoic acid], the IC50 on biotinylated Aβ1-42 was 5.01 µM.

Regarding `CS(=O)(=O)c1ccc(-c2cc(CC(=O)O)c(-c3ccc(-c4sc(-c5ccc(C(=O)O)s5)cc4CC(=O)O)s3)s2)cc1` [Example 75, 5-[4-(Carboxymethyl)-5-{5-[3-(carboxymethyl)-5-(4-methanesulfonylphenyl)thiophen-2-yl]thiophen-2-yl}thiophen-2-yl]thiophene-2-carboxylic acid], the concentration for half-maximal inhibition (IC50) against biotinylated Aβ1-42 was 31.6 µM.

`Cn1nc(C(F)(F)F)cc1-c1cc(CC(=O)O)c(-c2ccc(-c3sc(-c4cc(C(F)(F)F)nn4C)cc3CC(=O)O)s2)s1` [Example 77, 2-(2-{5-[3-(Carboxymethyl)-5-[1-methyl-3-(trifluoromethyl)-1H-pyrazol-5-yl]thiophen-2-yl]thiophen-2-yl}-5-[1-methyl-3-(trifluoromethyl)-1H-pyrazol-5-yl]thiophen-3-yl)acetic acid] had a half-maximal inhibitory concentration (IC50) on biotinylated Aβ1-42 of 5.01 µM.

Take `O=C(O)Cc1cc(-c2ccc(C(=O)N3CCCC3)c(F)c2)sc1-c1ccc(-c2sc(-c3ccc(C(=O)N4CCCC4)c(F)c3)cc2CC(=O)O)s1` [Example 78, 2-(2-{5-[3-(Carboxymethyl)-5-[3-fluoro-4-(pyrrolidine-1-carbonyl)phenyl]thiophen-2-yl]thiophen-2-yl}-5-[3-fluoro-4-(pyrrolidine-1-carbonyl)phenyl]thiophen-3-yl)acetic acid]: on biotinylated Aβ1-42, inhibition was half-maximal at 5.01 µM (IC50).

Take `O=C(O)Cc1cc(-c2cccc(C(=O)NC3CC3)c2)sc1-c1ccc(-c2sc(-c3cccc(C(=O)NC4CC4)c3)cc2CC(=O)O)s1` [Example 80, 2-(2-{5-[3-(Carboxymethyl)-5-[3-(cyclopropylcarbamoyl)phenyl]thiophen-2-yl]thiophen-2-yl}-5-[3-(cyclopropylcarbamoyl)phenyl]thiophen-3-yl)acetic acid]: at biotinylated Aβ1-42, the half-maximal inhibitory concentration (IC50) was 7.94 µM.

`N#Cc1cccc(-c2cc(CC(=O)O)c(-c3ccc(-c4sc(-c5cccc(C#N)c5)cc4CC(=O)O)s3)s2)c1` [Example 83, 2-(2-{5-[3-(Carboxymethyl)-5-(3-cyanophenyl)thiophen-2-yl]thiophen-2-yl}-5-(3-cyanophenyl)thiophen-3-yl)acetic acid] showed an IC50 against biotinylated Aβ1-42 of 12.6 µM.

At biotinylated Aβ1-42, `O=C(O)Cc1ccsc1-c1ccc(-c2cc(CC(=O)O)c(-c3ccc(-c4sc(-c5ccc(-c6sccc6CC(=O)O)s5)cc4CC(=O)O)s3)s2)s1` [Example 84, 2-(2-{5-[3-(Carboxymethyl)-5-{5-[3-(carboxymethyl)thiophen-2-yl]thiophen-2-yl}thiophen-2-yl]thiophen-2-yl}-5-{5-[3-(carboxymethyl)thiophen-2-yl]thiophen-2-yl}thiophen-3-yl)acetic acid] gave an IC50 of 1.58 µM.

On to `N#Cc1ccc(-c2cc(CC(=O)O)c(-c3ccc(-c4sc(-c5ccc(C#N)s5)cc4CC(=O)O)s3)s2)s1` [Example 85, 2-(2-{5-[3-(Carboxymethyl)-5-(5-cyanothiophen-2-yl)thiophen-2-yl]thiophen-2-yl}-5-(5-cyanothiophen-2-yl)thiophen-3-yl)acetic acid], for which, at biotinylated Aβ1-42, the IC50 is 3.98 µM.

Take `C#Cc1cc(CC(=O)O)c(-c2ccc(-c3sc(C#C)cc3CC(=O)O)s2)s1` [Example 86, 2-(2-{5-[3-(Carboxymethyl)-5-ethynylthiophen-2-yl]thiophen-2-yl}-5-ethynylthiophen-3-yl)acetic acid]: the IC50 against biotinylated Aβ1-42 is 20 µM.

For `O=C(O)Cc1cc(-c2cccc(OC(F)(F)F)c2)sc1-c1ccc(-c2sc(-c3cccc(OC(F)(F)F)c3)cc2CC(=O)O)s1` [Example 87, 2-(2-{5-[3-(Carboxymethyl)-5-[3-(trifluoromethoxy)phenyl]thiophen-2-yl]thiophen-2-yl}-5-[3-(trifluoromethoxy)phenyl]thiophen-3-yl)acetic acid], on biotinylated Aβ1-42, half-maximal inhibition (IC50) required 1 µM.

In the case of `O=C(O)Cc1cc(C(=O)c2cccs2)sc1-c1ccc(-c2sc(C(=O)c3cccs3)cc2CC(=O)O)s1` [Example 93, 2-(2-{5-[3-(carboxymethyl)-5-(thiophene-2-carbonyl)thiophen-2-yl]thiophen-2-yl}-5-(thiophene-2-carbonyl)thiophen-3-yl)acetic acid], the “Rescue of Abeta toxicity (MTT)” value is “+” with primary chicken neurons (Conc. 0.1 μM), “++” with primary chicken neurons (Conc. 1 μM) and “+++” in the assay on primary chicken neurons (Conc. 10 μM).

Consider `O=C(O)Cc1cc(C(=O)c2ccccc2)sc1-c1ccc(-c2sc(C(=O)c3ccccc3)cc2CC(=O)O)s1` [Example 95, 2-(5-benzoyl-2-{5-[5-benzoyl-3-(carboxymethyl)thiophen-2-yl]thiophen-2-yl}thiophen-3-yl)acetic acid], for which the “Rescue of Abeta toxicity (MTT)” value in the assay with primary chicken neurons (Conc. 0.1 μM) was “no”; in the assay on primary chicken neurons (Conc. 1 μM), “no”; in the assay with primary chicken neurons (Conc. 10 μM), “+++”.

By IC50 is commonly meant the concentration that inhibits the measured activity by half.
